Results from US9687477B2 (priority 2011, dated 2017).
Like-named read-outs stand apart in the source and are kept apart here.

Assays:
influenza virus [1] = details: cited from earlier work
influenza virus [2] = assay: Viral NP in influenza virus-infected HEK-cells treated with sphingolipids (Western blot); assay type: cell-based, Influenza A/WSN/33 virus (H1N1); details: 1 MOI, 1 μM, 2 dpi
Procedure: FIG. 6 (Panels A-D) set forth data illustrating the enhanced susceptibility of SK1-cells to influenza virus infection. (A) HEK-cells (open triangle) or SK1-cells (filled square) were infected with influenza virus at 0.1 MOI. At 12, 18 or 48 hpi, virus titers were determined by plaque assay. n=3 separate virus-infected cells per group at each time point; Mean±SEM. (B) Western blot analysis was conducted at 2 dpi to detect viral NP and actin. (C) Cell lysates were used for Western blot analysis to detect STAT1, pSTAT1 and actin. (D) HEK-cells were infected with influenza virus at 1 MOI and treated with solvent controls, FTY720 (1 μM), D-erythro-sphingosine (1 μM) or S1P (1 μM). At 2 dpi, total proteins were extracted to detect viral NP and actin by Western blot analysis.
(§1) Specific antibodies against actin, influenza viral protein NP, NS1, NS2, M1, M2, Bax, Bcl-2, PARP, STAT1, pSTAT1, STAT2, pSTAT2, ERK, pERK, p38, p-p38, Akt, pAkt, JNK, pJNK, RanBP3, pRanBP3, p-p90RSK, and FLAG for SPL and SK1 were purchased from Cell Signaling Technology, Abcam, Upstate, or Santa Cruz Biotechnology. Total proteins were extracted by a RIPA buffer supplemented with inhibitors blocking proteases and phosphatases, and then normalized by using a Bradford assay. The protein samples (20 μg each) were run on a 12% SDS-PAGE gel and transferred to a PROTRAN-NC (Whatman). Membrane-bound antibodies were detected by enhanced chemiluminescence (Pierce). All of the presented data were repeated with independent experimental settings, at least twice.
FTY720, D-erythro-sphingosine, and S1P were purchased from Cayman Chemicals. HEK-cells were infected with influenza virus and simultaneously treated with FTY720 (1 μM), D-erythro-sphingosine (1 μM), or its solvent (1% DMSO). Similarly, virus-infected cells were treated with S1P (1 μM) or its solvent (3 mM NaOH). These experiments were repeated two more times, with similar results.

[3] = system: Influenza A/WSN/33 virus (H1N1); assay: microbe, parasite or virus in culture; assay type: cell-based; details: read-out: EC50 (50% efficacy concentration that blocks virus production)
RanBP3 = assay: Influenza virus-induced phosphorylation of RanBP3 in MDCK cells (Western blot); assay type: cell-based, canine; details: 5 MOI, 5 μM
Procedure: FIG. 11 (Panels A-E) set forth data illustrating critical role of RanBP3 in influenza virus replication and RanBP3 regulation by SK inhibitor. (A-B) MDCK cells were infected with influenza virus at 5 MOI and treated with VEH or DMS (5 μM). Cell lysates were obtained at the indicated time points and the expression of pRanBP3 was assessed by Western blot analysis. Relative expression of pRanBP3 is shown in panel B. (C-E) HEK293 cells were transfected with control siRNA (siCTR) or siRNA targeting RanBP3 (siRanBP3). Western blotting was performed to detect RanBP3 and pRanBP3 (C). Cells were transfected with siRNA and then infected with influenza virus at 0.001 MOI. Virus titers were determined by using a plaque assay (D). Cells were transfected with siRNA and then infected with influenza virus at 1 MOI for 12 hrs. Immunocytochemistry followed by confocal microscopic analysis was performed to detect influenza viral NP (E).
(§2) Specific antibodies against actin, influenza viral protein NP, NS1, NS2, M1, M2, Bax, Bcl-2, PARP, STAT1, pSTAT1, STAT2, pSTAT2, ERK, pERK, p38, p-p38, Akt, pAkt, JNK, pJNK, RanBP3, pRanBP3, p-p90RSK, and FLAG for SPL and SK1 were purchased from Cell Signaling Technology, Abcam, Upstate, or Santa Cruz Biotechnology. […] Membrane-bound antibodies were detected by enhanced chemiluminescence (Pierce). […]

ERK signaling pathway = assay: Influenza virus-induced activation of ERK MAP kinase signal in MDCK cells (Western blot); assay type: cell-based, canine; details: 3 MOI, 5 μM
Procedure: FIG. 12 (Panels A-C) set forth data illustrating reduced activation of ERK MAP kinase signal by SK inhibitor treatment upon influenza virus infection. (A). MDCK cells were treated with VEH or DMS (5 μM) and infected with influenza virus at 3 MOI. Cell lysates were obtained at the indicated time points and the expression of ERK MAP kinase signaling components were assessed by Western blot analysis. Relative expression of pERK and p90RSK is shown in panels B and C respectively (dotted line, VEH treated; solid line, DMS treated).
as §1

influenza virus [4] = assay: Survival and weight loss of influenza virus-infected mice treated with SK inhibitor; assay type: in vivo, C57BL/6 mice
Procedure: FIG. 8 (Panels A-B) set forth data illustrating reduced mortality of influenza virus-infected mice by SK inhibitor treatment. (A) Wild-type C57BL/6 mice (n=5/group) were infected in vivo with influenza virus at 10^5 plaque forming unit (PFU) intra-nasally (i.n.) and injected with vehicle (control, CTR) or DMS {0.1 mg/kg (mpk)} and their lifespan was monitored. (B) Mice were infected with 5×10^4 PFU of influenza virus and then treated with vehicle (control, CTR), DMS (0.003 mpk) or SKI-II (0.012 mpk) via intranasal inoculation. Survival of the infected mice was monitored daily for 14 days.
Refer to FIGS. 8A and 8B. Wild-type C57BL/6 mice (n=5/group) were infected in vivo with influenza virus at 10^5 PFU intra-nasally (i.n.) and injected with vehicle (CTR) or DMS {0.1 mg/kg (mpk)} and their lifespan was monitored.

[5] = system: Measles virus (Edmonston strain); assay type: cell-based
influenza virus [6] = assay: JAK inhibitor / STAT1 inhibitor assay: viral NP in infected HEK- and SPL-cells; assay type: cell-based, Influenza A/WSN/33 virus (H1N1); details: 1 MOI, treated at 2 hpi, 10 μM, after 2 days
Text: FIG. 4 (Panels A-E) set forth data illustrating the analyses for the activation of JAK/STAT following influenza virus infection of SPL-cells. HEK-cells or SPL-cells were uninfected or infected with influenza virus at 1 MOI. (A) At 1 dpi, cell lysates were used for Western blot analysis to detect STAT1, pSTAT1, STAT2, pSTAT2 and actin. (B) At 0, 12 or 18 hpi, whole proteins were extracted and then used for Western blot analysis to detect STAT1, pSTAT1 and actin. (C) HEK- or SPL-cells were pre-treated with fludarabine (1 μM) blocking STAT1 expression, and at 2 dpi, the expression of viral NP and actin was analyzed. (D) HEK-cells (filled bars) and SPL-cells (open bars) were uninfected (CTR) or infected with influenza virus at 1 MOI (left panel) or 10 MOI (right panel). Reverse transcription followed by quantitative real-time PCR was performed to detect the relative mRNA level of IFN-β. […] After 2 days, the level of viral NP and actin was assessed by Western blot analysis.
as §2

## CCCCCCCOc1ccc(CC[C@@](C)(N)CO)cc1 [AAL-R]
Influenza virus [1]; reference 18
  propagation of influenza virus: did not significantly alter the propagation of influenza virus
Influenza virus [1]; references 17, 18
  influenza virus-induced immune pathology: alleviate influenza virus-induced immune pathology

## CCCCCCCCCCCCC/C=C/[C@@H](O)[C@@H](N)CO [D-erythro-sphingosine]
Influenza virus [2]
  synthesis of influenza viral NP: failed to enhance the synthesis of influenza viral NP

## CCCCCCCCCCCCC/C=C/[C@@H](O)[C@H](CO)N(C)C [DMS, D-erythro-N,N-dimethylsphingosine]
[3]
  EC50: 4.1 µM
RanBP3
  influenza virus-induced phosphorylation of RanBP3: blocked influenza virus-induced phosphorylation of RanBP3
ERK signaling pathway
  influenza virus-induced activation (phosphorylation) of ERK: suppress influenza virus-induced activation
  influenza virus-induced activation (phosphorylation) of p90RSK: suppress influenza virus-induced activation
Influenza virus [4]; 10^5 PFU i.n., single dose 0.1 mpk, at 9-10 dpi
  weight lost by treated infected mice: ~20%
Influenza virus [4]; mouse, in vivo, 0.012 mg/kg
  mortality rate of the infected mice: decreased the mortality rate of the infected mice
Influenza virus [4]; mouse, in vivo, 0.1 mg/kg
  protection from influenza virus-induced death (lifespan): effectively protected them from influenza virus-induced death
Influenza virus [4]; n=5/group, −15% in CTR
  weight loss of the infected mice (morbidity experiment): −7%

## CCCCCCCCc1ccc(CCC(N)(CO)CO)cc1 [FTY720]
Influenza virus [2]
  synthesis of influenza viral NP: failed to enhance the synthesis of influenza viral NP

## CCCCCCCCCCCCC/C=C/[C@@H](O)[C@@H](N)COP(=O)(O)O [S1P, sphingosine-1-phosphate]
Influenza virus [2]
  synthesis of influenza viral NP: failed to enhance the synthesis of influenza viral NP

## Oc1ccc(Nc2nc(-c3ccc(Cl)cc3)cs2)cc1 [SKI-II, 4-[4-(4-Chloro-phenyl)-thiazol-2-ylamino]-phenol]
[3]; Influenza A virus, MDCK
  EC50: 2.5 µM
[5]
  expression of measles viral proteins: inhibited
  production of measles virus (viral titers, plaque assay): interfered with the production of measles virus
Influenza virus [4]; single dose 0.012 mpk, 5×10^4 PFU, intranasal, 14 days
  viability of mice infected with influenza virus: increased viability of mice infected with influenza virus

## JAK inhibitor I
Influenza virus [6]; HEK-cells
  NP expression in HEK-cells: only a little increase of NP expression
Influenza virus [6]; SPL-cells
  expression level of viral NP in SPL-cells: strongly elevated the expression level of viral NP
